According to patent US7608627B2, “6-azaindole compound” (Takeda Pharmaceutical Company Limited, priority 2005, dated 2009):
Structures can show the parent of a compound that is named as a salt.

melting point	SMILES
264 to 266 °C (dec.)	CNCc1cc2ccnc(Cl)c2[nH]1.Cl
201 to 204 °C	Cl.Clc1nccc2cc(CNCc3ccccc3)[nH]c12
98 to 101 °C	Cl.Clc1nccc2cc(CNCc3ccco3)[nH]c12
176 to 179 °C	Cl.Clc1nccc2cc(CNCc3ccccn3)[nH]c12
230 to 232 °C	CN1CCN(C(=O)c2cc3ccnc(Cl)c3[nH]2)CC1
242 to 245 °C (dec.)	CCNCc1cc2ccnc(Cl)c2[nH]1.Cl
170 to 185 °C (dec.)	Clc1nccc2cc(C(NCc3ccccc3)c3ccccc3)[nH]c12 (stereo not drawn) (as salt: hydrochloride) [Example 34, N-Benzyl-N-[(7-chloro-1H-pyrrolo[2,3-c]pyridin-2-yl)(phenyl)methyl]amine dihydrochloride]
185 to 187 °C	OCc1cc2ccnc(Cl)c2[nH]1 [Example 1, (7-Chloro-1H-pyrrolo[2,3-c]pyridin-2-yl)methanol]
217 to 220 °C	O=C(NCc1ccccc1)c1cc2ccnc(Cl)c2[nH]1 [Example 2, N-Benzyl-7-chloro-1H-pyrrolo[2,3-c]pyridine-2-carboxamide]
170 to 171 °C	O=C(c1cc2ccnc(Cl)c2[nH]1)N1CCOCC1 [Example 3, 7-Chloro-2-(4-morpholinylcarbonyl)-1H-pyrrolo[2,3-c]pyridine]
177 to 183 °C	O=C(NCc1ccccn1)c1cc2ccnc(Cl)c2[nH]1 [Example 4, 7-Chloro-N-(2-pyridinylmethyl)-1H-pyrrolo[2,3-c]pyridine-2-carboxamide]
189 to 191 °C	O=C(NCc1cccnc1)c1cc2ccnc(Cl)c2[nH]1 [Example 5, 7-Chloro-N-(3-pyridinylmethyl)-1H-pyrrolo[2,3-c]pyridine-2-carboxamide]
> 340 °C	O=C(NCc1ccncc1)c1cc2ccnc(Cl)c2[nH]1 [Example 6, 7-Chloro-N-(4-pyridinylmethyl)-1H-pyrrolo[2,3-c]pyridine-2-carboxamide]
205 to 209 °C	O=C(NCc1ccco1)c1cc2ccnc(Cl)c2[nH]1 [Example 7, 7-Chloro-N-(2-furylmethyl)-1H-pyrrolo[2,3-c]pyridine-2-carboxamide]
179 to 181 °C	O=C(NCc1cccs1)c1cc2ccnc(Cl)c2[nH]1 [Example 8, 7-Chloro-N-(2-thienylmethyl)-1H-pyrrolo[2,3-c]pyridine-2-carboxamide]
179 to 184 °C	CC(=O)N1CCN(C(=O)c2cc3ccnc(Cl)c3[nH]2)CC1 [Example 12, 2-[(4-Acetyl-1-piperazinyl)carbonyl]-7-chloro-1H-pyrrolo[2,3-c]pyridine]
152 to 154 °C	O=C(c1cc2ccnc(Cl)c2[nH]1)N1CCCC1 [Example 13, 7-Chloro-2-(1-pyrrolidinylcarbonyl)-1H-pyrrolo[2,3-c]pyridine]
62 to 72 °C	O=C(c1cc2ccnc(Cl)c2[nH]1)N1CCSCC1 [Example 14, 7-Chloro-2-(4-thiomorpholinylcarbonyl)-1H-pyrrolo[2,3-c]pyridine]
94 to 102 °C	O=C(Nc1ccccn1)c1cc2ccnc(Cl)c2[nH]1 [Example 20, 7-Chloro-N-(2-pyridinyl)-1H-pyrrolo[2,3-c]pyridine-2-carboxamide]
> 320 °C	O=C(Nc1cccnc1)c1cc2ccnc(Cl)c2[nH]1 [Example 21, 7-Chloro-N-(3-pyridinyl)-1H-pyrrolo[2,3-c]pyridine-2-carboxamide]
> 320 °C	O=C(Nc1ccncc1)c1cc2ccnc(Cl)c2[nH]1 [Example 22, 7-Chloro-N-(4-pyridinyl)-1H-pyrrolo[2,3-c]pyridine-2-carboxamide]
230 to 236 °C	O=C(NCc1ccccn1)c1cc2ccncc2[nH]1 [Example 27, N-(2-Pyridinylmethyl)-1H-pyrrolo[2,3-c]pyridine-2-carboxamide]
152 to 153 °C	O=C(c1ccccc1)c1cc2ccnc(Cl)c2[nH]1 [Example 29, (7-Chloro-1H-pyrrolo[2,3-c]pyridin-2-yl)(phenyl)methanone]
270 to 290 °C	O=C(Nc1cccnc1)c1cc2ccncc2[nH]1 [Example 30, N-(3-Pyridinyl)-1H-pyrrolo[2,3-c]pyridine-2-carboxamide]
245 to 247 °C	O=C(c1ccccc1)c1cc2ccncc2[nH]1 [Example 35, Phenyl(1H-pyrrolo[2,3-c]pyridin-2-yl)methanone]
199 to 200 °C	O=C(NCc1ccncc1)c1cc2ccnc(NCc3ccccc3)c2[nH]1 [Example 42, 7-(Benzylamino)-N-(4-pyridinylmethyl)-1H-pyrrolo[2,3-c]pyridine-2-carboxamide]

Second part, the compound before the results:

SMILES	melting point
Cl.c1ccc(CON=C(c2ccccc2)c2cc3ccncc3[nH]2)cc1	153 to 155 °C
Cl.Clc1nccc2cc(CNC3CCCC3)[nH]c12	241 to 244 °C
Cl.Clc1nccc2cc(CNCCN3CCOCC3)[nH]c12	146 to 150 °C
Cl.Clc1nccc2cc(CNC3CCN(Cc4ccccc4)CC3)[nH]c12	295 to 310 °C (dec.)
Cl.Clc1nccc2cc(CN3CCCCC3)[nH]c12	240 to 244 °C
Cl.NCCCO/N=C(\c1ccccc1)c1cc2ccncc2[nH]1	168 to 174 °C (dec.)
N=C(N)NN=C(c1ccccc1)c1cc2ccncc2[nH]1 (as salt: hydrochloride)	306 to 310 °C
N=C(N)N/N=C(\c1ccccc1)c1cc2cc(Cl)ncc2[nH]1 (as salt: hydrochloride)	274 to 278 °C
NCc1cc2ccncc2[nH]1 (as salt: hydrochloride)	302 to 303 °C
CC(C)/C(=N\NC(=N)N)c1cc2ccncc2[nH]1 (as salt: hydrochloride)	242 to 245 °C
CC(C)C/C(=N\NC(=N)N)c1cc2ccncc2[nH]1 (as salt: hydrochloride)	232 to 236 °C
NC(c1ccccc1)c1cc2ccncc2[nH]1 (stereo not drawn) (as salt: hydrochloride) [Example 40, 1-Phenyl-1-(1H-pyrrolo[2,3-c]pyridin-2-yl)methylamine dihydrochloride]	240 to 250 °C
C/C(=N\NC(=N)N)c1cc2ccncc2[nH]1 (as salt: hydrochloride) [Example 71, [[1-(1H-Pyrrolo[2,3-c]pyridin-2-yl)ethylidene]amino]guanidine dihydrochloride]	314 to 318 °C (dec.)
CC(N)c1cc2ccncc2[nH]1 (stereo not drawn) (as salt: hydrochloride) [Example 75, 1-(1H-Pyrrolo[2,3-c]pyridin-2-yl)ethylamine dihydrochloride]	289 to 292 °C
NCCON=C(c1ccc(Cl)c(Cl)c1)c1cc2ccncc2[nH]1 (as salt: trifluoroacetate) [Example 134, (3,4-Dichlorophenyl)(1H-pyrrolo[2,3-c]pyridin-2-yl)methanone O-(2-aminoethyl)oxime bis(hydrogen trifluoroacetate)]	64 to 68 °C
Cl.Cl.c1ccc(C(=NOC2CCCNC2)c2cc3ccncc3[nH]2)cc1 (single isomer, unassigned)	240 to 245 °C (dec.)
c1ccc(C(=NOC2CCNCC2)c2cc3ccncc3[nH]2)cc1 (single isomer, unassigned) (as salt: hydrochloride)	240 to 245 °C (dec.)
c1ccc(C(=NOC2CCCNC2)c2cc3ccncc3[nH]2)cc1 (single isomer, unassigned) (as salt: hydrochloride)	240 to 245 °C (dec.)
COc1ccc(/C(=N/OCCN)c2cc3ccncc3[nH]2)cc1 (single isomer, unassigned) (as salt: hydrochloride) [Example 124, (4-Methoxyphenyl)(1H-pyrrolo[2,3-c]pyridin-2-yl)methanone O-(2-aminoethyl)oxime dihydrochloride]	178 to 184 °C
Cc1ccc(/C(=N/OCCN)c2cc3ccncc3[nH]2)cc1 (single isomer, unassigned) (as salt: trifluoroacetate) [Example 119, (4-Methylphenyl)(1H-pyrrolo[2,3-c]pyridin-2-yl)methanone O-(2-aminoethyl)oxime bis(hydrogen trifluoroacetate)]	190 to 194 °C
NCCO/N=C(/c1ccc(Cl)cc1)c1cc2ccncc2[nH]1 (single isomer, unassigned) (as salt: trifluoroacetate) [Example 126, (4-Chlorophenyl)(1H-pyrrolo[2,3-c]pyridin-2-yl)methanone O-(2-aminoethyl)oxime bis(hydrogen trifluoroacetate)]	146 to 150 °C
CC(C)(C)OC(=O)NCCO/N=C(\c1ccc(Cl)cc1)c1cc2ccncc2[nH]1 (single isomer, unassigned) [Example 116, tert-Butyl 2-[[[(4-chlorophenyl)(1H-pyrrolo[2,3-c]pyridin-2-yl)methylene]amino]oxy]ethylcarbamate]	166 to 169 °C
O=C(c1ccsc1)c1cc2ccncc2[nH]1 [Example 32, (1H-Pyrrolo[2,3-c]pyridin-2-yl)(thien-3-yl)methanone]	178 to 181 °C (dec.)
O=C(c1cc2ccncc2[nH]1)N1CCCC1 [Example 33, 2-(1-Pyrrolidinylcarbonyl)-1H-pyrrolo[2,3-c]pyridine]	260 to 275 °C (dec.)
O=C(NCc1cccnc1)c1cc2ccnc(N(Cc3ccccc3)Cc3ccccc3)c2[nH]1 [Example 37, 7-(Dibenzylamino)-N-(3-pyridinylmethyl)-1H-pyrrolo[2,3-c]pyridine-2-carboxamide]	105 to 108 °C
O=C(NCc1cccs1)c1cc2ccnc(N(Cc3ccccc3)Cc3ccccc3)c2[nH]1 [Example 38, 7-(Dibenzylamino)-N-(2-thienylmethyl)-1H-pyrrolo[2,3-c]pyridine-2-carboxamide]	152 to 154 °C
O/N=C(\c1ccccc1)c1cc2ccncc2[nH]1 [Example 39, Phenyl(1H-pyrrolo[2,3-c]pyridin-2-yl)methanone oxime]	132 to 142 °C
O=C(NCc1ccncc1)c1cc2ccnc(N(Cc3ccccc3)Cc3ccccc3)c2[nH]1 [Example 41, 7-(Dibenzylamino)-N-(4-pyridinylmethyl)-1H-pyrrolo[2,3-c]pyridine-2-carboxamide]	119 to 120 °C
